Data taken from ChEMBL document CHEMBL1201862, “PubChem BioAssay data set” (2004).
The source made the active and inactive calls.

How the values were obtained:
Cytochrome P450 1A2 = biological target: T1, Cytochrome P450 1A2 (Homo sapiens, UniProt P05177);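 further: PubChem cytochrome P450 panel assay, CYP1A2 panel member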
T1 sequence (P05177 whole entry): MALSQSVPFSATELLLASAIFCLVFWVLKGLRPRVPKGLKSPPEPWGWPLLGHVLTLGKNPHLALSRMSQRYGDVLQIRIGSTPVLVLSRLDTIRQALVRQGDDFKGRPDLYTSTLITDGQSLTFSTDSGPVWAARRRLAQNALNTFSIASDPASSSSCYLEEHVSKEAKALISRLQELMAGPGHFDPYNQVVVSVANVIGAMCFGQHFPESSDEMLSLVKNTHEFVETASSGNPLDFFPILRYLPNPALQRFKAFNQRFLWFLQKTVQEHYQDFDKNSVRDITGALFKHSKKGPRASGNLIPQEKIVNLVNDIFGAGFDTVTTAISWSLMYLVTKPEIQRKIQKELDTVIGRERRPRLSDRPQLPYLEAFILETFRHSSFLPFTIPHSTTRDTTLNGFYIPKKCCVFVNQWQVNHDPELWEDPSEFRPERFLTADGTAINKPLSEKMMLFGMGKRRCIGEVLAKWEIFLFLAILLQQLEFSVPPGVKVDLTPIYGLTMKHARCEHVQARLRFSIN

[1] = Luminescence Cell-Based Dose Retest to Confirm Inhibitors of Cancer Stem Cells. [Related pubchem assays (depositor defined):AID2717, AID2721]; assay type: functional; conditions: Homo sapiens
[2] = cytotoxicity in HMLE control line with eGFP shRNA, dose response, counter-screen for HMLE_sh_ECad selective toxicity project, cell-based, HMLE_sh_eGFP, luminescence (AID 463074); assay type: functional, Homo sapiens;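 further: HMLE human mammary epithelial cells expressing control shRNA against eGFP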
Large T antigen = Large T antigen (Simian virus 40, UniProt P03070); assay type: functional, Betapolyomavirus macacae;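 further: Confirmatory-stage PubChem screen for compounds that inhibit SV40 T antigen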
[3] = biological target: Lysine-specific demethylase 4C (Homo sapiens, UniProt Q9H3R0); test: GASC-1 (JMJD2C) histone demethylase inhibitors, dose response, biochemical, DELFIA europium, cherry-picked samples (AID 488835); assay type: functional
Sequence of Lysine-specific demethylase 4C (Q9H3R0 whole entry): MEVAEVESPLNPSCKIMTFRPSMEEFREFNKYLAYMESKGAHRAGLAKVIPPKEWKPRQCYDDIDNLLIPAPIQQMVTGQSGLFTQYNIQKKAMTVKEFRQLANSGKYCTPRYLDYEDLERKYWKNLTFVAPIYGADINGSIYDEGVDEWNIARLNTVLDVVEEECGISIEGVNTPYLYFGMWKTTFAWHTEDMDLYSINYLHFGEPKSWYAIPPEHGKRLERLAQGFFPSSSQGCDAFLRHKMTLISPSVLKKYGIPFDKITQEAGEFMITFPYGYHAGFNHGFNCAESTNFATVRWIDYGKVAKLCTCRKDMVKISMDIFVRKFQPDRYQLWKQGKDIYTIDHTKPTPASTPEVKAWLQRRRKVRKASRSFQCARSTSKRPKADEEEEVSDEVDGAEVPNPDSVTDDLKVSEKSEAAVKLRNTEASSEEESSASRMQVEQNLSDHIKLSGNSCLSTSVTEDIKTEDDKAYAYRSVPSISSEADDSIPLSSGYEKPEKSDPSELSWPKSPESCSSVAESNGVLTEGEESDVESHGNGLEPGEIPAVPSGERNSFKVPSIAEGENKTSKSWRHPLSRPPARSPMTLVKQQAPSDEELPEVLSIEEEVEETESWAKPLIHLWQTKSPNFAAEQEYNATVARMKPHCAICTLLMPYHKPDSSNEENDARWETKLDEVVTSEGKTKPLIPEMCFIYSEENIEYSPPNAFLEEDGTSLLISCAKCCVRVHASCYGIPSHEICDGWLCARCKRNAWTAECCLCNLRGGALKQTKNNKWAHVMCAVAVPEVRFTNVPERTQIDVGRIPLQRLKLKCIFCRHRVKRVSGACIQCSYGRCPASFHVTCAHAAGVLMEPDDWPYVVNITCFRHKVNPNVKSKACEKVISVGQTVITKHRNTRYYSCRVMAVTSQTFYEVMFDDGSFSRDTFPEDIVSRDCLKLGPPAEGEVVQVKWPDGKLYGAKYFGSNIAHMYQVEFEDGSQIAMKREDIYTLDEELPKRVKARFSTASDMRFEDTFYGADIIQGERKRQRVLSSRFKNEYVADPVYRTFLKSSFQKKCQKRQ

Genome polyprotein = Genome polyprotein (dengue virus type 2, UniProt P29990); test: Dengue-2 NS5 methyltransferase inhibitors, primary screen, biochemical, confirmation dose response (AID 588689); assay type: functional
Sequence of Genome polyprotein (P29990 2492-3391 limits assumed): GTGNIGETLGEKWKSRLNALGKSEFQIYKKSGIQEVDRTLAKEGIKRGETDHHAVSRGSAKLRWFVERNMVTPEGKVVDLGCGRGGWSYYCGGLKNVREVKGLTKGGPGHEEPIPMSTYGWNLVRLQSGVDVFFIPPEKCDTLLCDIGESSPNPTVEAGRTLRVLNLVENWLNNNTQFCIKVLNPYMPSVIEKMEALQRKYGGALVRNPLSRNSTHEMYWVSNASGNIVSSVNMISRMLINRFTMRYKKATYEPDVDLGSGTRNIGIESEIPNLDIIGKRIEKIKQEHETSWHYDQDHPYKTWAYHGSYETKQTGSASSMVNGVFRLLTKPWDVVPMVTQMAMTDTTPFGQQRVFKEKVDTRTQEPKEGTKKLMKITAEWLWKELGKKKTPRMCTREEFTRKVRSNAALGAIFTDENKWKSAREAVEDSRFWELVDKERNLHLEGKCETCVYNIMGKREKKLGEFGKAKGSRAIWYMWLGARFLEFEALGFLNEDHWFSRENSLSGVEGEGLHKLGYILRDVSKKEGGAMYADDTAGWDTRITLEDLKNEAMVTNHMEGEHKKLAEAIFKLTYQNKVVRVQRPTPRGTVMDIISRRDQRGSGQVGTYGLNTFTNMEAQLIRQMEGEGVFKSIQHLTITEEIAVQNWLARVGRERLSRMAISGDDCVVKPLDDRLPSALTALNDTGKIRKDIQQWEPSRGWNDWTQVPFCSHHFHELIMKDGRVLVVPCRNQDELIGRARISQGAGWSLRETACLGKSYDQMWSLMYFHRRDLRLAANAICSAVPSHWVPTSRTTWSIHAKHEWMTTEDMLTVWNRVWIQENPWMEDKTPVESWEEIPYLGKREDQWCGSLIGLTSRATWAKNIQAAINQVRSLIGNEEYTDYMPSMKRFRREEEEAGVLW

[4] = biological target: T2, Polyadenylate-binding protein 1 (Homo sapiens, UniProt P11940); test: PABP1 MLLE–PAM2 interaction inhibitors, dose response, miRNA deadenylation inhibitor project, biochemical, fluorescence polarization, Cy5-PAM2 peptide, secondary (AID 602260); assay type: functional; conditions: read-out: IC50_Mean
T2 sequence (P11940 whole entry): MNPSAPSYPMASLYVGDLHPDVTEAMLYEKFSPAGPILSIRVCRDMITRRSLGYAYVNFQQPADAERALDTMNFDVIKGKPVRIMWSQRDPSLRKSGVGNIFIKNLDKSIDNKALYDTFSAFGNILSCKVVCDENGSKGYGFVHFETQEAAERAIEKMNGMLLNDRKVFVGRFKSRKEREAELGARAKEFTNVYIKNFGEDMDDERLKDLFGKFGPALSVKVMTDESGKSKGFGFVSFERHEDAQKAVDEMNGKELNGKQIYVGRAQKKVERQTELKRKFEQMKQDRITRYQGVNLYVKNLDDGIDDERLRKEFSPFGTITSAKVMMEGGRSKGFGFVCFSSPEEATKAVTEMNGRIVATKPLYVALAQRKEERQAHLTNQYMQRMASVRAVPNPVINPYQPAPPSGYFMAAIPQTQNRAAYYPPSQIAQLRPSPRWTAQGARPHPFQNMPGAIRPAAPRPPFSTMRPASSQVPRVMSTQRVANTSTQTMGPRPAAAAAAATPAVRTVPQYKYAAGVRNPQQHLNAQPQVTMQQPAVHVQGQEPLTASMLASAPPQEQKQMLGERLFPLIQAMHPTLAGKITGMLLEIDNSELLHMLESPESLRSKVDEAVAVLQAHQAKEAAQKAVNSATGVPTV

[5] = biological target: T2, Polyadenylate-binding protein 1; test: PABP1 MLLE–PAM2 binding inhibitor potency, dose response, biochemical, fluorescence polarization, FITC-PAM2 peptide (AID 602259); assay type: functional; conditions: read-out: IC50_Mean
[6] = biological target: T3, Apoptotic protease-activating factor 1 (Homo sapiens, UniProt O14727); test: activation of Apaf-1 mediated apoptosis – fluorescent, uHTS hits, dose response (AID 588554); assay type: functional
T3 sequence (O14727 whole entry): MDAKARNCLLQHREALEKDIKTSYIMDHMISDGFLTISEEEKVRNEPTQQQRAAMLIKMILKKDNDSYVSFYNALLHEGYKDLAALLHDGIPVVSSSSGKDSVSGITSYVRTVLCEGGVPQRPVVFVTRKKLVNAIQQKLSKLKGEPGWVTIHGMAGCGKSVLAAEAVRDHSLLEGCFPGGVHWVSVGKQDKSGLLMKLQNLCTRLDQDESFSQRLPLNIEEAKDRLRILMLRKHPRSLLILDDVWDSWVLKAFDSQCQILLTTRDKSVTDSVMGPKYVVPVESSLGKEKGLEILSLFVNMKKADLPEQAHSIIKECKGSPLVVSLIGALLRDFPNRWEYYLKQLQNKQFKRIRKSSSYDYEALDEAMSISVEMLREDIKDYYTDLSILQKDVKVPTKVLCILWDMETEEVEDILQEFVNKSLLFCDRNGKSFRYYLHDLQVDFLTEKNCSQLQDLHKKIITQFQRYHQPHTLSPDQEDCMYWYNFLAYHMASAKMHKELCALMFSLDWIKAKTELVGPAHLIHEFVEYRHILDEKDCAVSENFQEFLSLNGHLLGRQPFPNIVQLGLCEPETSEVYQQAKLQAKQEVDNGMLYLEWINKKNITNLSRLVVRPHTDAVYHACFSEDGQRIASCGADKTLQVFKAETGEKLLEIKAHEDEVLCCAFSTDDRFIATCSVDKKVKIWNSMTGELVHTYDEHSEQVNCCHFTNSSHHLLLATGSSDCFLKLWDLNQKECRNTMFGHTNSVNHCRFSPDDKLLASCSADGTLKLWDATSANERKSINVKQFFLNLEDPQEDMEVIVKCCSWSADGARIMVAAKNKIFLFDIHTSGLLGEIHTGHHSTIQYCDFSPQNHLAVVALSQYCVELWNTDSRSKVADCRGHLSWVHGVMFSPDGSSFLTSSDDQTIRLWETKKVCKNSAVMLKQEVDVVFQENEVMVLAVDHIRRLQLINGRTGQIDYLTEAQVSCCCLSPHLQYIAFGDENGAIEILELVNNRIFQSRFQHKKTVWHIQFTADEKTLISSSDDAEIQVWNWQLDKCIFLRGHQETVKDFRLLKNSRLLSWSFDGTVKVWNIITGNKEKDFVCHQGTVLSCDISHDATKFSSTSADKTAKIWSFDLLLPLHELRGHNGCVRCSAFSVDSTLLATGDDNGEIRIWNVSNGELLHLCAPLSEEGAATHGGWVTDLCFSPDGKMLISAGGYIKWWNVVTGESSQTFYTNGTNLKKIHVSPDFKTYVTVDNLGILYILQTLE

Cytochrome P450 2C19 = Cytochrome P450 2C19 (Homo sapiens, UniProt P33261); test: Cytochrome panel assay with activity outcomes. Panel member name: p450-cyp2c19 Compounds with AC50 equal or less than 10 uM are considered active; assay type: functional
Sequence of Cytochrome P450 2C19 (P33261 whole entry): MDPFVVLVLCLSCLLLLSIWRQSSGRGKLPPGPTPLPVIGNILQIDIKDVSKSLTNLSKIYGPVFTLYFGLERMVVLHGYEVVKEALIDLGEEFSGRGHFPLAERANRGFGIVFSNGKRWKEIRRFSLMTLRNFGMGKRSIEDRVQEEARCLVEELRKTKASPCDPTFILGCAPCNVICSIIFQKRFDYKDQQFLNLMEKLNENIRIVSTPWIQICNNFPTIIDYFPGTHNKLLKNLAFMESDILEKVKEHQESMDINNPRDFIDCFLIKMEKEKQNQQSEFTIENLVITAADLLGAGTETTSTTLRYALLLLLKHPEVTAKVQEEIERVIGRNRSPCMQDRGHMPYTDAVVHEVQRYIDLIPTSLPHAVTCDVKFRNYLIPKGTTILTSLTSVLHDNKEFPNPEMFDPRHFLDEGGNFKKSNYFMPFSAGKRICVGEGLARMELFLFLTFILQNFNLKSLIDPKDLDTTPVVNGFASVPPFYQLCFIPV

Cytochrome P450 2D6 = Cytochrome P450 2D6 (Homo sapiens, UniProt P10635);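 further: CYP2D6 member of a cytochrome P450 panel assay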
Sequence of Cytochrome P450 2D6 (P10635 whole entry): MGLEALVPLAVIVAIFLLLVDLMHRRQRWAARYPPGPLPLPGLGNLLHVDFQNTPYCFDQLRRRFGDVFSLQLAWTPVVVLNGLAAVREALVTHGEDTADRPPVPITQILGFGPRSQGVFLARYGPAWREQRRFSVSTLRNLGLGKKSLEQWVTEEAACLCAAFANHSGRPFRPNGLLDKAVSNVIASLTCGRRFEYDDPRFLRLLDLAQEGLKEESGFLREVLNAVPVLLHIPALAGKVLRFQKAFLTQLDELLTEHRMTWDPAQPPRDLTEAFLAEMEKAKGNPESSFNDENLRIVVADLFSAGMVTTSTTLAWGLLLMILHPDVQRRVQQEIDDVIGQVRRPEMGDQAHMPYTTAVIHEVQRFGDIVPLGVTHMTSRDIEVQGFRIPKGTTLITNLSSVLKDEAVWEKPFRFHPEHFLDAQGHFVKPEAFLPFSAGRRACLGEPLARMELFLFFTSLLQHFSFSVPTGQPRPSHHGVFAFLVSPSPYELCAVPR

[7] = biological target: T4, Mannose-6-phosphate isomerase (Homo sapiens, UniProt P34949); test: PMI enzyme inhibitors, confirmation, biochemical, fluorescence intensity (AID 1535)
T4 sequence (P34949 whole entry): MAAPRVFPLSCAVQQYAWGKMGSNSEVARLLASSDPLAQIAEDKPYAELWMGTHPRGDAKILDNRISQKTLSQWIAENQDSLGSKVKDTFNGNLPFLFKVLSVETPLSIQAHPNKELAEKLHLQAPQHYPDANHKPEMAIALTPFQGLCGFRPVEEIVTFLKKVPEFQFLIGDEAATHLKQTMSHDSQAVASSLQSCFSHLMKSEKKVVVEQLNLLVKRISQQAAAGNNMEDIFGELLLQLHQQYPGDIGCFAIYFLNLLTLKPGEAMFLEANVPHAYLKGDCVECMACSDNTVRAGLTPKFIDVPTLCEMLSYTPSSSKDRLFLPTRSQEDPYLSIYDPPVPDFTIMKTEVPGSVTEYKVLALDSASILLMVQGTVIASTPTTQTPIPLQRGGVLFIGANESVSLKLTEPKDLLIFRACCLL

Phosphomannomutase 2 = Phosphomannomutase 2 (Homo sapiens, UniProt O15305); test: Counter screen SAR assay for PMM2 inhibitors via a fluorescence intensity assay. [Related pubchem assays (depositor defined):AID1545, AID1574]
cells [8] = assay type: functional, cell-based
cells [9] = assay type: functional, cell-based; remark: listed apart in the source
Cysteine protease ATG4B [10] = biological target: T5, Cysteine protease ATG4B (Homo sapiens, UniProt Q9Y4P1); assay type: functional;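 further: Fluorescence-based dose-response confirmation assay measuring inhibition of ATG4B activity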
T5 sequence (Q9Y4P1 whole entry): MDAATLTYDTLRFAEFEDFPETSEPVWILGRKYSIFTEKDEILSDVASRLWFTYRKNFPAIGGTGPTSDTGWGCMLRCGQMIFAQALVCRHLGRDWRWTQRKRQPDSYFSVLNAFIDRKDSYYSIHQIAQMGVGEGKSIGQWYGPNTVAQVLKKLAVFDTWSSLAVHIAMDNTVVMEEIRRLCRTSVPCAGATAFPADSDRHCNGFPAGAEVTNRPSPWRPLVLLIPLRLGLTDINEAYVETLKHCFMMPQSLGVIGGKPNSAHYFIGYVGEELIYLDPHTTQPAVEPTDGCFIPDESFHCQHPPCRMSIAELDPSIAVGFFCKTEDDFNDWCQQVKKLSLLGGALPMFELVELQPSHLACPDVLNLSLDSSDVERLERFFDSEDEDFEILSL

Phospholipase A2 [11] = biological target: T6, Phospholipase A2 (Homo sapiens, UniProt P04054); test: PLA2 enzyme inhibitors, dose response, counter-screen for ATG4B inhibitor project, biochemical, set 2 (AID 588586); assay type: functional
T6 sequence (P04054 whole entry): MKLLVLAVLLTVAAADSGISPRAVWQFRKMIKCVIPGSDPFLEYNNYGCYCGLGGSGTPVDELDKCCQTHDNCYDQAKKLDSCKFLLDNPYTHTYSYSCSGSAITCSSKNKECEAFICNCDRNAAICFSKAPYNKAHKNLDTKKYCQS

Phospholipase A2 [12] = biological target: T6, Phospholipase A2; assay type: functional
Cysteine protease ATG4B [13] = biological target: T5, Cysteine protease ATG4B; test: ATG4B protease inhibitors, dose response, biochemical, fluorescence, set 2 (AID 588584); assay type: functional
Keap1/Nrf2 = Keap1/Nrf2 (Homo sapiens, UniProt Q14145); test: Keap1-Nrf2 protein-protein interaction inhibitors, dose response, biochemical, fluorescence polarization, cherry-picked samples (AID 588683)
[14] = biological target: Intestinal-type alkaline phosphatase (Mus musculus, UniProt P24822); test: PubChem AID 488874; assay type: functional
Sequence of Intestinal-type alkaline phosphatase (Mus musculus, UniProt P24822) (P24822 whole entry): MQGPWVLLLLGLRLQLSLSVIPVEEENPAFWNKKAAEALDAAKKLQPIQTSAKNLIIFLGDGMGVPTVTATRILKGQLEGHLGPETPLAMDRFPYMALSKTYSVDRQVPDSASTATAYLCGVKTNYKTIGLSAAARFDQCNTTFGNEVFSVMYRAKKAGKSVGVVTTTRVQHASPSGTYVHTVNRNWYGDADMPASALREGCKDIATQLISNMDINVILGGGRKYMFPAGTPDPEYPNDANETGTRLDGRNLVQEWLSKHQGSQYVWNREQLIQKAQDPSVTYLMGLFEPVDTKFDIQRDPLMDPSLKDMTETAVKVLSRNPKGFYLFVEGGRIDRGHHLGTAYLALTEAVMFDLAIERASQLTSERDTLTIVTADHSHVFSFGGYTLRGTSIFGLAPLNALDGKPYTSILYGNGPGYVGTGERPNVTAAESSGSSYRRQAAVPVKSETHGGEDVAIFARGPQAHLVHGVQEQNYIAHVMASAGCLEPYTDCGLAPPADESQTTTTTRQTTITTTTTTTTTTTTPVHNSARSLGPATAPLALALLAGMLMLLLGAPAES

[15] = biological target: T7, Intestinal-type alkaline phosphatase (Homo sapiens, UniProt P09923); test: human IAP inhibitors, dose response, biochemical, luminescent, uHTS hits, set 2 (AID 488793); assay type: functional
T7 sequence (P09923 whole entry): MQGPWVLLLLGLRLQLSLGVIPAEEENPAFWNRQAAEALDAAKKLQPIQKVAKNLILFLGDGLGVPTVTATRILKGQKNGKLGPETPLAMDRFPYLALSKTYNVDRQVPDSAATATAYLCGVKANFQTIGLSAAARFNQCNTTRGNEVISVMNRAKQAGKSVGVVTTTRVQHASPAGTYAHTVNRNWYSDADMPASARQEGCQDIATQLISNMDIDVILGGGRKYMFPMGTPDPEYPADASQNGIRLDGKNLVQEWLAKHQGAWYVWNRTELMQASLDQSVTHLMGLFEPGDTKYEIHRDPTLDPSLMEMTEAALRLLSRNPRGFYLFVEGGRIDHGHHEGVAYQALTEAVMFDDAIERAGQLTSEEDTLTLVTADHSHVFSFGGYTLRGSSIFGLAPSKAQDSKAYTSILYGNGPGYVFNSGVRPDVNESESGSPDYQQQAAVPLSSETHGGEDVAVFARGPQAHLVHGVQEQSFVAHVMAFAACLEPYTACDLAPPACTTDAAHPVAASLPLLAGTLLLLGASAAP

[16] = biological target: T7, Intestinal-type alkaline phosphatase; test: Dose Response confirmation of uHTS hits from a small molecule inhibitors of human intestinal alkaline phosphatase via a luminescent assay. [Related pubchem assays (depositor defined):AID2544, AID2574]; assay type: functional
[17] = biological target: T8, Alkaline phosphatase, tissue-nonspecific isozyme (Homo sapiens, UniProt P05186); test: inhibition of tissue-nonspecific alkaline phosphatase – biochemical, dose response (AID 488882); assay type: functional
T8 sequence (P05186 whole entry): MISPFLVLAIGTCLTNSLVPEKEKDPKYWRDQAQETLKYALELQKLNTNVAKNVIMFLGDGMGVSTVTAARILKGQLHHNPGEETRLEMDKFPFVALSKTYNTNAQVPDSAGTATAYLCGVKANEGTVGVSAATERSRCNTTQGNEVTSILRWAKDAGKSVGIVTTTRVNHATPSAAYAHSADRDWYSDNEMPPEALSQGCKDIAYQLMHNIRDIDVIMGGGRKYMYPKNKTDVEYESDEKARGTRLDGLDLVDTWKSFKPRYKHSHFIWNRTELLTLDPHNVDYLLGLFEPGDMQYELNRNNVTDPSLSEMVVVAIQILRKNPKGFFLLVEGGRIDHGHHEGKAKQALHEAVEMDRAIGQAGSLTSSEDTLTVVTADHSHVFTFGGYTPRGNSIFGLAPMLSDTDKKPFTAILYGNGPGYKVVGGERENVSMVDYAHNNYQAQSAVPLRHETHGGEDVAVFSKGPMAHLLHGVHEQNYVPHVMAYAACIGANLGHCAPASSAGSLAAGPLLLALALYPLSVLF

Exodeoxyribonuclease V = Exodeoxyribonuclease V (Escherichia coli (strain K12), UniProt P04993+P07648+P08394); test: E. coli RecBCD inhibitors, dose response, counter-screen for AddAB inhibitor project, absorbance, V66 E. coli, mutant T4 phage (AID 492957); assay type: functional, cell-based, Escherichia coli str. K-12 substr. MG1655
[18] = Counterscreen for AddAB inhibitors: absorbance-based bacterial cell-based high throughput dose response assay for inhibitors of bacterial viability. [Related pubchem assays (depositor defined):AID435030, AID449728, AID449731, AID488942, AID488955, AID488956]; assay type: functional

SMILES: O=S(=O)(c1ccccc1)N1CCC[C@@]2(CCN(Cc3cc(C(F)(F)F)cc(C(F)(F)F)c3)C2)C1
- AC50 (Cytochrome P450 1A2): inconclusive

SMILES: O=C(Nc1ccc(OCc2ccccc2)cc1)c1cccs1
- AC50 [1]: 1.98 µM (active)
- AC50 [2]: 62.6 µM (active)

SMILES: O=C1NC(=O)C(=Cc2csc3ccccc23)C(=O)N1
- IC50 (Large T antigen): 59.7 µM (active)
- AC50 [3]: 6.34 µM (active)
- IC50 (Genome polyprotein): 26.9 µM (active)
- IC50 [4]: > 66 µM (inactive)
- IC50 [5]: > 66 µM (inactive)

SMILES: CC(/C=C\c1cccnc1)=C/C(=O)O
- EC50 [6]: 11 µM (active)

SMILES: CC(CC(=O)O)(CC(=O)O)C(=O)O
- AC50 (Cytochrome P450 2C19): inconclusive
- AC50 (Cytochrome P450 2D6): inconclusive

SMILES: COc1ccc(C)cc1/N=c1\ssnc1Cl
- IC50 [7]: 22.5 µM (active)
- IC50 (Phosphomannomutase 2): > 100 µM (inactive)

SMILES: Cc1cc(/C=N/n2c(COc3ccccc3)nc3ccccc3c2=O)c(O)c([N+](=O)[O-])c1
- EC50 (cells [8]): > 350 µM (not active)
- EC50 (cells [9]): 31.7 µM (active)
- AC50 [1]: 20.9 µM (active)
- IC50 (Cysteine protease ATG4B [10]): 17.2 µM (active)
- IC50 (Phospholipase A2 [11]): 10.5 µM (active)
- IC50 (Phospholipase A2 [12]): 13.1 µM (active)
- IC50 (Cysteine protease ATG4B [13]): 22.8 µM (inactive)

SMILES: NC(=O)c1cc2ccc(O)cc2o/c1=N\Cc1ccccc1
- AC50 (Keap1/Nrf2): 18.7 µM (active)

SMILES: C/C(=N/Nc1ccccc1[N+](=O)[O-])c1ccc([N+](=O)[O-])cc1
- IC50 [14]: > 100 µM (inactive)
- IC50 [15]: 77.3 µM (active)
- IC50 [16]: 69.6 µM (inactive)
- IC50 [17]: > 100 µM (inactive)

SMILES: O=C1CCC(=O)N(O)CCCCCNC(=O)CCC(=O)N(O)CCCCNC(=O)CCC(=O)N(O)CCCCCN1 [DESMETHYLENYLNOCARDAMINE]
- IC50 (Exodeoxyribonuclease V): > 119 µM (inactive)
- IC50 [18]: > 119 µM (inactive)
